BindingDB's records for doi:10.1038/nchembio.2208 (Novartis Pharma, 2016)

Columns and labels:
[1] = molecular target: T1, Kallikrein-7 [37-253,Y180R] (Homo sapiens, UniProt P49862, Y180R); assay: Human KLK7 Fluorescence-Lifetime Assay; conditions: pH 5.6; 25 °C
T1 construct: 37-253
Experimental: The enzyme reaction was initiated by addition of the substrate Ac-[…]PT14)-Glu-NH2 (0.8 μM; Biosyntan, Berlin, Germany, product BS-#7599). Fluorescence-lifetime measurements were conducted on an Ultra Evolution fluorescence lifetime reader (TECAN, M nnedorf, Switzerland). The excitation light source was a semiconductor laser at 405 nm, producing picosecond light pulses with a selected repetition frequency of 10 MHz. The emission was collected through a 450 nm bandpass filter with 25 nm bandwidth. The measurement time per well was set to 1 s, yielding approximately 1,000 counts in the peak channel. The parameters used as assay readout were the mono-exponential lifetimes.

[2] = molecular target: T2, Complement factor D [24-253] (Homo sapiens, UniProt P00746); assay: Complement FD Thioesterolysis Assay; conditions: pH 7.5; 25 °C
T2 construct: 24-253
T2 sequence (P00746 24-253): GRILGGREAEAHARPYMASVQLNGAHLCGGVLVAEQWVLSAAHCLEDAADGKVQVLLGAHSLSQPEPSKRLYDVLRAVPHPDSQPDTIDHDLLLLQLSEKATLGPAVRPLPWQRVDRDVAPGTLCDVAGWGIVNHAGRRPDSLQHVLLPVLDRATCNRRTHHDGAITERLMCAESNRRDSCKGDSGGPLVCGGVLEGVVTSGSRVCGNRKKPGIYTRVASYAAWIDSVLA

[3] = molecular target: T3, Complement factor B [470-764] (UniProt P00751); assay: Human FB Proteolysis Assay (ELISA C3a); conditions: pH 7.4; 4 °C
T3 construct: 470-764
T3 sequence (P00751 470-764): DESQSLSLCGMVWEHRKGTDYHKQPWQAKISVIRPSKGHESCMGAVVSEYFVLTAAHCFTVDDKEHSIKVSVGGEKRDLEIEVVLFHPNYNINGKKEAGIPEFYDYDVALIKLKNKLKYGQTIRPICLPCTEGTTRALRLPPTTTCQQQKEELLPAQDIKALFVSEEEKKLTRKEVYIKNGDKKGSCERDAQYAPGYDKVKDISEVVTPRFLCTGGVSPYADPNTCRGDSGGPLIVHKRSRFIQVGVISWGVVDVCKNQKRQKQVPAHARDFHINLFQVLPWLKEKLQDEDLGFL
Experimental: The enzyme reaction was started by addition of C3 diluted in the assay buffer to a final concentration of 1 μM.

[4] = molecular target: T4, Complement factor D [24-253] (Mus musculus, UniProt P03953); assay: Complement FD Thioesterolysis Assay; conditions: pH 7.5; 25 °C
T4 construct: 24-253
T4 sequence (P03953 whole entry): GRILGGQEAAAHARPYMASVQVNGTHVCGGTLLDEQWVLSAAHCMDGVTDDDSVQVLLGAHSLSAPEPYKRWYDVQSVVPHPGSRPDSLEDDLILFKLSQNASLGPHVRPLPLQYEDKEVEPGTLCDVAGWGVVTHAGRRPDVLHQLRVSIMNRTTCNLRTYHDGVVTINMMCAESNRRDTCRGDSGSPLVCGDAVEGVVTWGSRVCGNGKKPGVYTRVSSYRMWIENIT

T1 sequence (P49862 37-253 Y180R): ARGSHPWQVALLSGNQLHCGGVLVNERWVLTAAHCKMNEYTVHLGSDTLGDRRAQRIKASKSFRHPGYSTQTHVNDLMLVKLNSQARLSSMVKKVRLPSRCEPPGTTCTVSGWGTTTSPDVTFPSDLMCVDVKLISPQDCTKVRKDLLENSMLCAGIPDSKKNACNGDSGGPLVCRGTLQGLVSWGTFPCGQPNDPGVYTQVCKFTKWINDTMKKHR

Row | IC50 [1] | IC50 [2] | IC50 [3] | IC50 [4] | SMILES
1 | > 100 µM |  |  |  | NC(=O)c1nn(CC(=O)N2[C@@H]3C[C@@H]3C[C@H]2C(=O)Nc2cccc(Br)n2)c2ccccc12 [1-(2-((1R,3S,5R)-3-((6-Bromopyridin-2-yl)carbamoyl)-2-azabicyclo[3.1.0]hexan-2-yl)-2-oxoethyl)-1H-indazole-3-carboxamide (7)]
2 | 0.7 µM | > 30 µM |  |  | COc1ccc(CCNC(=O)[C@@H]2CCCN2C(=O)NCc2cccc3ccccc23)cc1 [(S)-N2-(4-methoxyphenethyl)-N1-(naphthalen-1-ylmethyl)pyrrolidine-1,2-dicarboxamide (1)]
3 | > 100 µM |  | > 100 µM | 0.86 µM | C[C@@H](NC(=O)[C@@H]1C[C@H]2C[C@H]2N1C(=O)Cn1nc(C(N)=O)c2ccncc21)c1cccc(Cl)c1F [1-(2-((1R,3S,5R)-3-(((R)-1-(3-Chloro-2-fluorophenyl)ethyl)carbamoyl)-2-azabicyclo[3.1.0]hexan-2-yl)-2-oxoethyl)-1H-pyrazolo[3,4-c]pyridine-3-carboxamide (6)]
4 | > 100 µM | 5.8 µM | > 100 µM |  | Cn1cc(NC(=O)N2CCC[C@H]2C(=O)NC(c2ccccc2)c2ccccc2)c2ccccc21 [(S)-N2-benzhydryl-N1-(1-methyl-1H-indol-3-yl)pyrrolidine-1,2-dicarboxamide (5)]
5 |  |  | > 100 µM |  | NC(=O)c1cc2cc(OCc3cccc(C(=O)O)c3)ccc2[nH]1 [3-(((2-Carbamoyl-1H-indol-5-yl)oxy)methyl)benzoic acid (4)]
6 | 8.7 µM |  | > 100 µM |  | COC(=O)c1ccccc1CNC(=O)N1CCC[C@H]1C(=O)Nc1cccc(OC(F)(F)F)c1 [Methyl (S)-2-((2-((3-(trifluoromethoxy)phenyl)carbamoyl)pyrrolidine-1-carboxamido)-methyl)benzoate (2)]
